# Measurements: PMC7500638, “Dissecting the antibacterial activity of oxadiazolone-core derivatives against Mycobacterium abscessus” (PLoS ONE, 2020)
# Target: T1, Ag85CMabs (Ag85C, MAB_0175) (Mycobacteroides abscessus, UniProt B1MEL1)
# T1 construct: C-terminal 6His-tag; pMyC vector, expressed in M. smegmatis delta-groEL1
# Experiment: competitive TAMRA-FP activity-based probe labelling, in-gel fluorescence
# Assay type: binding
# Settings: covalent; 14 uM enzyme, 1 h preincubation, 10 mM Tris pH 8, 150 mM NaCl, 0.1% Triton X-100; catalytic Ser124
# T1 sequence (B1MEL1 entry or part of it): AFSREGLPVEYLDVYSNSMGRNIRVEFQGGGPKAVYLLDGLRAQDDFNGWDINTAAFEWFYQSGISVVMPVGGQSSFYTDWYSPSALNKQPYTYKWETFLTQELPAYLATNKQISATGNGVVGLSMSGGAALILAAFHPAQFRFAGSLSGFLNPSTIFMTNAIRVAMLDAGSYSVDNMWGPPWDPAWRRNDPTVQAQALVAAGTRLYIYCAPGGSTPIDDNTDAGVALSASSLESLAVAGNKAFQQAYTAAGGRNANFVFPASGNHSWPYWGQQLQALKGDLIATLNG
structure (smiles),measurement,value
CC(C)COc1nn(-c2ccc(Oc3ccccc3)cc2)c(=O)o1 [iBpPPOX],% loss of TAMRA-FP labelling at E/I 1:75,> 90%
